Source: patent publication US20240092835A1, “NOVEL PEPTIDES CAPABLE OF ALTERING NK CELL ACTIVITY” (Massachusetts Institute of Technology, priority 2022, published 2024)
Where no end group is shown, it is not given here.

Key:
[1] = test system: NKG2A−/NKG2C− NK cells; experiment: NK cell activation markers in control NKG2A-/NKG2C- NK cells incubated with peptide and K562 expressing HLA-E; assay type: cell-based, human
Summary of the method: (§1)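 Percent-positive cells for NK activation surface markers were measured after NK cells met peptide-treated K562 cells expressing HLA-E. A decrease in that fraction was scored as inhibition and an increase as activation; NKG2A−/NKG2C− cells served as controls.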

[2] = test system: NKG2A−/NKG2C+ NK cells; experiment: NK cell activation markers in NKG2A-/NKG2C+ NK cells incubated with peptide and K562 expressing HLA-E (activation); assay type: cell-based, human; conditions: for percentage of CCL3+ NK cells / percentage of CD107+ NK cells / percentage of IFNG+ NK cells / percentage of TNF+ NK cells: NKG2A-/NKG2C+ NK cells, K562/HLA-E
Summary of the method: as §1

[3] = molecular target: CD94/NKG2C (Homo sapiens, UniProt P26717+Q13241); experiment: Steady-state surface plasmon resonance of peptide-HLA-E complex with CD94/NKG2C; assay type: binding; conditions: for Binding of peptide-HLA-E complexes to CD94/NKG2C normalized to a theoretical Rmax: steady-state SPR
[4] = molecular target: CD94/NKG2A (Homo sapiens, UniProt P26715+Q13241); experiment: Steady-state surface plasmon resonance of peptide-HLA-E complex with CD94/NKG2A; assay type: binding; conditions: for Binding of peptide-HLA-E complexes to CD94/NKG2A normalized to a theoretical Rmax: steady-state SPR
[5] = molecular target: T1, HLA-E (Homo sapiens, UniProt P13747); experiment: HLA-E surface stabilization assay with RMA-S/HLA-E cells; assay type: cell-based; conditions: 30 μM peptide, 16 hours; for HLA-E surface expression stability (GeoMFI): anti-HLA-E antibody
T1 construct: expressed in transfected cells; host or cells: RMA-S/HLA-E cells (antigen processing-defective lymphoma cell line)
Protocol: HLA-E surface expression was assessed by measuring geometric mean fluorescence intensity (GeoMFI) in RMA-S cells following immunofluorescence staining with an anti-HLA-E antibody (Table 14). Increased GeoMFI was indicative of increased HLA-E surface expression stability following novel peptide exposures (FIG. 3).

CD94/NKG2A, sequence (P26715 94-233 limits assumed): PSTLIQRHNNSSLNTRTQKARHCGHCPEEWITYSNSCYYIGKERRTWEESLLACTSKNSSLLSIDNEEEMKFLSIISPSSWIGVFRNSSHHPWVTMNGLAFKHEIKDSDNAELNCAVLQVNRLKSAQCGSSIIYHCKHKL
CD94/NKG2A, sequence (Q13241 32-179 limits assumed): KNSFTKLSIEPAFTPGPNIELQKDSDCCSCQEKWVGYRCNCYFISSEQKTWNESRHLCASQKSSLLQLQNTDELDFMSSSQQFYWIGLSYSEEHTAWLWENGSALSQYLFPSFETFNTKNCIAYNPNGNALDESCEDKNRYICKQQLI
CD94/NKG2C, sequence (P26717 94-231 limits assumed): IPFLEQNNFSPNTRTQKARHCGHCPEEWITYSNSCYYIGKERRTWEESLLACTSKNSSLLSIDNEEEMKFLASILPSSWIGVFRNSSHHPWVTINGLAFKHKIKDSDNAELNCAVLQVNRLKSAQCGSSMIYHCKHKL
CD94/NKG2C, sequence (Q13241 32-179 limits assumed): as the sequence (Q13241 32-179 limits assumed) above

- binding of peptide-HLA-E complex to CD94/NKG2C normalized to a fitted Rmax ([3]; CD94/NKG2C concentration 0 μM): −0.005
- binding of peptide-HLA-E complex to CD94/NKG2C normalized to a fitted Rmax ([3]; CD94/NKG2C concentration 0.1 μM): 0.003
- binding of peptide-HLA-E complex to CD94/NKG2C normalized to a fitted Rmax ([3]; CD94/NKG2C concentration 0.2 μM): 0.009
- binding of peptide-HLA-E complex to CD94/NKG2C normalized to a fitted Rmax ([3]; CD94/NKG2C concentration 0.4 μM): 0.023
- binding of peptide-HLA-E complex to CD94/NKG2C normalized to a fitted Rmax ([3]; CD94/NKG2C concentration 0.8 μM): 0.046
- binding of peptide-HLA-E complex to CD94/NKG2C normalized to a fitted Rmax ([3]; CD94/NKG2C concentration 1.6 μM): 0.089
- binding of peptide-HLA-E complex to CD94/NKG2C normalized to a fitted Rmax ([3]; CD94/NKG2C concentration 3.2 μM): 0.168
- binding of peptide-HLA-E complex to CD94/NKG2C normalized to a fitted Rmax ([3]; CD94/NKG2C concentration 6.4 μM): 0.281
- binding of peptide-HLA-E complex to CD94/NKG2C normalized to a fitted Rmax ([3]; CD94/NKG2C concentration 12.8 μM): 0.443
- binding of peptide-HLA-E complex to CD94/NKG2C normalized to a fitted Rmax ([3]; CD94/NKG2C concentration 25.6 μM): 0.621
- binding of peptide-HLA-E complex to CD94/NKG2C normalized to a fitted Rmax ([3]; CD94/NKG2C concentration 51.2 μM): 0.755
- binding of peptide-HLA-E complex to CD94/NKG2C normalized to a fitted Rmax ([3]; CD94/NKG2C concentration 102.4 μM): 0.867
- Binding of peptide-HLA-E complexes to CD94/NKG2C normalized to a theoretical Rmax ([3]; CD94/NKG2C analyte concentration 0 μM): −0.003
- Binding of peptide-HLA-E complexes to CD94/NKG2C normalized to a theoretical Rmax ([3]; CD94/NKG2C analyte concentration 0.1 μM): 0.002
- Binding of peptide-HLA-E complexes to CD94/NKG2C normalized to a theoretical Rmax ([3]; CD94/NKG2C analyte concentration 0.2 μM): 0.007
- Binding of peptide-HLA-E complexes to CD94/NKG2C normalized to a theoretical Rmax ([3]; CD94/NKG2C analyte concentration 0.4 μM): 0.017
- Binding of peptide-HLA-E complexes to CD94/NKG2C normalized to a theoretical Rmax ([3]; CD94/NKG2C analyte concentration 0.8 μM): 0.034
- Binding of peptide-HLA-E complexes to CD94/NKG2C normalized to a theoretical Rmax ([3]; CD94/NKG2C analyte concentration 1.6 μM): 0.066
- Binding of peptide-HLA-E complexes to CD94/NKG2C normalized to a theoretical Rmax ([3]; CD94/NKG2C analyte concentration 3.2 μM): 0.124
- Binding of peptide-HLA-E complexes to CD94/NKG2C normalized to a theoretical Rmax ([3]; CD94/NKG2C analyte concentration 6.4 μM): 0.207
- Binding of peptide-HLA-E complexes to CD94/NKG2C normalized to a theoretical Rmax ([3]; CD94/NKG2C analyte concentration 12.8 μM): 0.326
- Binding of peptide-HLA-E complexes to CD94/NKG2C normalized to a theoretical Rmax ([3]; CD94/NKG2C analyte concentration 25.6 μM): 0.457
- Binding of peptide-HLA-E complexes to CD94/NKG2C normalized to a theoretical Rmax ([3]; CD94/NKG2C analyte concentration 51.2 μM): 0.555
- Binding of peptide-HLA-E complexes to CD94/NKG2C normalized to a theoretical Rmax ([3]; CD94/NKG2C analyte concentration 102.4 μM): 0.638
- binding of peptide-HLA-E complex to CD94/NKG2A normalized to a fitted Rmax ([4]; CD94/NKG2A concentration 0 μM): −0.007
- binding of peptide-HLA-E complex to CD94/NKG2A normalized to a fitted Rmax ([4]; CD94/NKG2A concentration 0.1 μM): 0.023
- binding of peptide-HLA-E complex to CD94/NKG2A normalized to a fitted Rmax ([4]; CD94/NKG2A concentration 0.2 μM): 0.046
- binding of peptide-HLA-E complex to CD94/NKG2A normalized to a fitted Rmax ([4]; CD94/NKG2A concentration 0.4 μM): 0.094
- binding of peptide-HLA-E complex to CD94/NKG2A normalized to a fitted Rmax ([4]; CD94/NKG2A concentration 0.8 μM): 0.173
- binding of peptide-HLA-E complex to CD94/NKG2A normalized to a fitted Rmax ([4]; CD94/NKG2A concentration 1.6 μM): 0.293
- binding of peptide-HLA-E complex to CD94/NKG2A normalized to a fitted Rmax ([4]; CD94/NKG2A concentration 3.2 μM): 0.450
- binding of peptide-HLA-E complex to CD94/NKG2A normalized to a fitted Rmax ([4]; CD94/NKG2A concentration 6.4 μM): 0.618
- binding of peptide-HLA-E complex to CD94/NKG2A normalized to a fitted Rmax ([4]; CD94/NKG2A concentration 12.8 μM): 0.766
- binding of peptide-HLA-E complex to CD94/NKG2A normalized to a fitted Rmax ([4]; CD94/NKG2A concentration 25.6 μM): 0.873
- binding of peptide-HLA-E complex to CD94/NKG2A normalized to a fitted Rmax ([4]; CD94/NKG2A concentration 51.2 μM): 0.942
- binding of peptide-HLA-E complex to CD94/NKG2A normalized to a fitted Rmax ([4]; CD94/NKG2A concentration 102.4 μM): 0.954
- Binding of peptide-HLA-E complexes to CD94/NKG2A normalized to a theoretical Rmax ([4]; CD94/NKG2A analyte concentration 0.000 μM): −0.005
- Binding of peptide-HLA-E complexes to CD94/NKG2A normalized to a theoretical Rmax ([4]; CD94/NKG2A analyte concentration 0.100 μM): 0.017
- Binding of peptide-HLA-E complexes to CD94/NKG2A normalized to a theoretical Rmax ([4]; CD94/NKG2A analyte concentration 0.200 μM): 0.034
- Binding of peptide-HLA-E complexes to CD94/NKG2A normalized to a theoretical Rmax ([4]; CD94/NKG2A analyte concentration 0.400 μM): 0.070
- Binding of peptide-HLA-E complexes to CD94/NKG2A normalized to a theoretical Rmax ([4]; CD94/NKG2A analyte concentration 0.800 μM): 0.131
- Binding of peptide-HLA-E complexes to CD94/NKG2A normalized to a theoretical Rmax ([4]; CD94/NKG2A analyte concentration 1.600 μM): 0.221
- Binding of peptide-HLA-E complexes to CD94/NKG2A normalized to a theoretical Rmax ([4]; CD94/NKG2A analyte concentration 3.200 μM): 0.339
- Binding of peptide-HLA-E complexes to CD94/NKG2A normalized to a theoretical Rmax ([4]; CD94/NKG2A analyte concentration 6.400 μM): 0.465
- Binding of peptide-HLA-E complexes to CD94/NKG2A normalized to a theoretical Rmax ([4]; CD94/NKG2A analyte concentration 12.800 μM): 0.577
- Binding of peptide-HLA-E complexes to CD94/NKG2A normalized to a theoretical Rmax ([4]; CD94/NKG2A analyte concentration 25.600 μM): 0.657
- Binding of peptide-HLA-E complexes to CD94/NKG2A normalized to a theoretical Rmax ([4]; CD94/NKG2A analyte concentration 51.200 μM): 0.709
- Binding of peptide-HLA-E complexes to CD94/NKG2A normalized to a theoretical Rmax ([4]; CD94/NKG2A analyte concentration 102.400 μM): 0.718
- HLA-E surface expression stabilization strength (in words) [5]: moderate
- HLA-E surface expression stability (GeoMFI) ([5]; Trial 1): 2019 GeoMFI
- HLA-E surface expression stability (GeoMFI) ([5]; Trial 2): 2029 GeoMFI
- HLA-E surface expression stability (GeoMFI) ([5]; Trial 3): 1731 GeoMFI
- HLA-E surface expression stability (GeoMFI) ([5]; Trial 4): 2795 GeoMFI
- HLA-E surface expression stabilization strength, approximate GeoMFI ([5]; approximate value): approximately 2×10^3 GeoMFI
Sequence: TLPKRGLFL [human2, TLPKRGLFL]
- percentage CCL3+ NK cells ([1]; Trial 1): 31.9%
- percentage CD107+ NK cells ([1]; Trial 1): 26.1%
- percentage TNF+ NK cells ([1]; Trial 1): 4.12%
- percentage of IFNG+ NK cells ([1]; Trial 1): 16.2%
- percentage CCL3+ NK cells ([1]; Trial 2): 57.4%
- percentage CD107+ NK cells ([1]; Trial 2): 34.1%
- percentage TNF+ NK cells ([1]; Trial 2): 8.51%
- percentage of IFNG+ NK cells ([1]; Trial 2): 24.9%
- percentage CCL3+ NK cells ([1]; Trial 3): 49.9%
- percentage CD107+ NK cells ([1]; Trial 3): 46.1%
- percentage TNF+ NK cells ([1]; Trial 3): 15.8%
- percentage of IFNG+ NK cells ([1]; Trial 3): 37.4%
- percentage CCL3+ NK cells ([1]; Trial 4): 34.8%
- percentage CD107+ NK cells ([1]; Trial 4): 30.1%
- percentage TNF+ NK cells ([1]; Trial 4): 9.02%
- percentage of IFNG+ NK cells ([1]; Trial 4): 18.9%
- percentage CCL3+ NK cells ([1]; Trial 5): 25.6%
- percentage CD107+ NK cells ([1]; Trial 5): 18.1%
- percentage TNF+ NK cells ([1]; Trial 5): 6.52%
- percentage of IFNG+ NK cells ([1]; Trial 5): 13.9%
- percentage CCL3+ NK cells ([1]; Trial 6): 24.6%
- percentage CD107+ NK cells ([1]; Trial 6): 19.1%
- percentage TNF+ NK cells ([1]; Trial 6): 5.25%
- percentage of IFNG+ NK cells ([1]; Trial 6): 10%
- effect on NKG2A−/NKG2C+ NK cell activation (in words) ([2]; K562 expressing HLA-E, CD107a, IFNG, TNF, CCL3): strong activating effects
- percentage of CCL3+ NK cells ([2]; Trial 1): 80.9%
- percentage of CD107+ NK cells ([2]; Trial 1): 80%
- percentage of IFNG+ NK cells ([2]; Trial 1): 69.5%
- percentage of TNF+ NK cells ([2]; Trial 1): 57.3%
- percentage of CCL3+ NK cells ([2]; Trial 2): 92.4%
- percentage of CD107+ NK cells ([2]; Trial 2): 87.3%
- percentage of IFNG+ NK cells ([2]; Trial 2): 82.3%
- percentage of TNF+ NK cells ([2]; Trial 2): 72.6%
- percentage of CCL3+ NK cells ([2]; Trial 3): 86.1%
- percentage of CD107+ NK cells ([2]; Trial 3): 88.3%
- percentage of IFNG+ NK cells ([2]; Trial 3): 83%
- percentage of TNF+ NK cells ([2]; Trial 3): 73.8%
- percentage of CCL3+ NK cells ([2]; Trial 4): 71.8%
- percentage of CD107+ NK cells ([2]; Trial 4): 71.7%
- percentage of IFNG+ NK cells ([2]; Trial 4): 64.5%
- percentage of TNF+ NK cells ([2]; Trial 4): 56.2%
- percentage of CCL3+ NK cells ([2]; Trial 5): 75.8%
- percentage of CD107+ NK cells ([2]; Trial 5): 69.9%
- percentage of IFNG+ NK cells ([2]; Trial 5): 63.2%
- percentage of TNF+ NK cells ([2]; Trial 5): 57.8%
- percentage of CCL3+ NK cells ([2]; Trial 6): 62.1%
- percentage of CD107+ NK cells ([2]; Trial 6): 59.3%
- percentage of IFNG+ NK cells ([2]; Trial 6): 50.7%
- percentage of TNF+ NK cells ([2]; Trial 6): 41.1%
